Source: patent US20250340516A1, “Isoquinolinones as Modulators of POLRMT” (Pretzel Therapeutics, Inc., priority 2024, published 2025)

Target: POLRMT (Homo sapiens (Human), UniProt O00411)
Assay: homogeneous TR-FRET assay of POLRMT inhibition (mitochondrial transcription, 407 bp RNA product)
Assay type: biochemical
Conditions: 7.5 nM POLRMT, 15 nM TFB2M, 30 nM TFAM, 0.5 nM DNA template, 500 μM NTPs, 37° C., 60 minutes, * = aggregation of data sets, read-out: IC50 values for isoquinolinone compounds
Procedure: The inhibitory activity of the compounds of the present invention against POLRMT were determined by assays based on Bergbrede, T., et al., “An adaptable high-throughput technology enabling the identification of specific transcription modulators,” SLAC Discov., 22, 378-386 (2017).
The ability of some compounds of the present invention to inhibit POLRMT were determined in a homogeneous TR-FRET Assay using high-throughput screening in a 384-well plate format. This method is used to monitor the activity of mitochondrial transcription through measurement of its product, a 407 bp long RNA transcript. Detection of the product is facilitated by hybridization of two DNA-oligonucleotide probes to specific and adjacent sequences within the RNA product sequence. Upon annealing of the probes, two fluorophores are coupled directly to an acceptor nucleotide probe (ATTO647, 5′), or introduced via a coupled streptavidin with a biotinylated donor nucleotide probe (Europium cryptate) that is brought into sufficient proximity to serve as a fluorescence-donor-acceptor pair. Thus, a FRET signal at 665 nm is generated upon excitation at 340 nm.
Proteins used as transcription factors (POLRMT: NP_005026.3, TFAM: NP_003192.1, TFB2M: NP_071761.1) are diluted from their stocks to working concentrations of 1 μM, 20 μM and 4 μM respectively, in a dilution buffer containing 20 mM Tris-HCl (pH 8.0), 200 mM NaCl, 10% (v/v) glycerol, 1 mM Dithiothreitol (DTT), 0.5 mM EDTA.
DNA template is a pUC18 plasmid with the mitochondrial light strand promotor sequence (1-477) cloned between HindIII and BamHI sites. The DNA template is restriction linearized proximal to the promotor 3′-end (pUC-LSP).
The reaction mixture (10 uL) containing 7.5 nM POLRMT, 15 nM of TFB2M, 30 nM of TFAM, 0.5 nM of DNA template and 500 μM nucleotide triphosphate mix (NTPs) in a reaction buffer (containing 10 mM Tris-HCl (pH 7.5), 10 mM MgCl2, 40 mM NaCl, 10 mM DTT, 0.005% (w/v) Tween-20, 160 units/ml Rnase inhibitor and 0.1 mg/mL BSA) are dispensed to compounds in microplates, using a Thermo Multidrop® dispenser, and incubated at 37° C. in a VWR INCU-Line incubator for 60 minutes after mixing. No nucleotide triphosphate mix is added to negative control samples. Microplates with compounds to be tested in the assay are prepared from 10 mM compound stocks in 100% DMSO, equal amounts of DMSO without any compound are added to positive control and negative control samples.
During the incubation, a mix of the detection reagents is prepared in a buffer such that the enzymatic reaction is terminated due to chelating of Mg-ions and increased ionic strength, containing 50 mM Tris-HCl (pH 7.5), 700 mM NaCl, 20 mM EDTA, and 0.01% (w/v) Tween-20. Europium-streptavidin is pre-incubated with a 200-fold molar excess of a random sequence oligonucleotide to block unspecific binding of oligo, for two hours at ambient temperature in the dark. Afterwards, the blocked Europium-streptavidin is kept on ice until use.
At the end of the enzymatic reaction time, 5 μL detection oligo mix in the detection buffer is added, and assay plates are mixed and kept at ambient temperature for one hour, protected from light. The concentration of the Acceptor nucleotide oligo (e.g., ATTO647N-5′-[…]-3′ (SEQ ID NO: 1)) and Donor nucleotide oligo (e.g., bio-5′-AACACATCTCT(-bio)GCCAAACCCCA-bio-3′ (SEQ ID NO: 2)) in each assay well is 1 nM, and 3 nM, respectively.
After incubation with oligo mix, 5 μL of pre-blocked Europium-streptavidin reagent is dispensed to each assay well, assay plates are again mixed and kept at ambient temperature for one hour, protected from light.
The generated signal is measured with BMG Pherastar microtiter plate reader with a TRF light unit, using excitation at 340 nm, an integration time of 200 μs, and a delay time of 100 μs, before detection at 620 nm and 665 nm. The ratio of donor- and acceptor-fluorescence is used as a measure of the generated transcript product (i.e. enzymatic activity).

POLRMT, sequence (O00411 42-1230): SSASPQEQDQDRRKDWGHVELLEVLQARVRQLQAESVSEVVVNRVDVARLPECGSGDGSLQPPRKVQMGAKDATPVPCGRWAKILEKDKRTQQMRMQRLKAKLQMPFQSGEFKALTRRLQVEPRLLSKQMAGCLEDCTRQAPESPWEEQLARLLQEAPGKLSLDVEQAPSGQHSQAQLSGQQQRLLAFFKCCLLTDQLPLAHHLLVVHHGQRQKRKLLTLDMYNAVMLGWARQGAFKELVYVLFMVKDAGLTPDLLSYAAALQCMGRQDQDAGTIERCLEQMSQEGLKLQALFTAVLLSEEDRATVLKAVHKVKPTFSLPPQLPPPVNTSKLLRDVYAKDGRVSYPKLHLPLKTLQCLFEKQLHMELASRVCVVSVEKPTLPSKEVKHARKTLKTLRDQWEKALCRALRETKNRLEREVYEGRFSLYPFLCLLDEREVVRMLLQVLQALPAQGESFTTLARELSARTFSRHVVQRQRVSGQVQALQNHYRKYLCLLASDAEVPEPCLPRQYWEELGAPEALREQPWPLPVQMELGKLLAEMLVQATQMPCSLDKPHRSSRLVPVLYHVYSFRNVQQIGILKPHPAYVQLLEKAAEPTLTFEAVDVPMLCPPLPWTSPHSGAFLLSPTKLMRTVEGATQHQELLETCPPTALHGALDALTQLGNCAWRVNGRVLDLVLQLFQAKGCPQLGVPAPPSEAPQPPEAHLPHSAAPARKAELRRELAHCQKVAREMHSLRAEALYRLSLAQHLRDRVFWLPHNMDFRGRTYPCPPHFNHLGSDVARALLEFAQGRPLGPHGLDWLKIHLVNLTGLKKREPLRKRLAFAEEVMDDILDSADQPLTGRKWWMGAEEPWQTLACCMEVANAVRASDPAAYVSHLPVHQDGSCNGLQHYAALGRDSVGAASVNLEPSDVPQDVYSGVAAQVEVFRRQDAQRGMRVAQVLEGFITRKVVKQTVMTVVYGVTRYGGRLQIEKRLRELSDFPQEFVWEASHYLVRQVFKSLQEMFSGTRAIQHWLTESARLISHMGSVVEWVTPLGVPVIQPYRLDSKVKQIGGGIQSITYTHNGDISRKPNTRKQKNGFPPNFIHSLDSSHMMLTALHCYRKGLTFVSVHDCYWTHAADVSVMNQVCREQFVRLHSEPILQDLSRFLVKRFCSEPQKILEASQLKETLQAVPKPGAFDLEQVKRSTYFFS

Row | IC50 | Compound
1 | 93000 nM | Cc1ccccc1-c1c[nH]c(=O)c2cc(N(C)[C@@H](C)C(=O)N3CCC[C@H](C(=O)O)C3)ccc12 (single isomer, unassigned) [Example 8]
2 | 50 nM | Cc1ccccc1-c1c[nH]c(=O)c2cc(O[C@H](C)C(=O)N3CC(C(=O)O)CC(F)(F)C3)ccc12 (single isomer, unassigned) [Example 2]
3 | 1000 nM | CC(=O)N1CC2CC1CN2C(=O)[C@@H](C)Oc1ccc2c(-c3ccc(F)cc3Cl)c[nH]c(=O)c2c1 (stereo partly drawn) [Example 6, 7-(((2R)-1-(5-acetyl-2,5-diazabicyclo[2.2.1]heptan-2-yl)-1-oxopropan-2-yl)oxy)-4-(2-chloro-4-fluorophenyl)isoquinolin-1(2H)-one]
4 | 37000 nM | Cc1ccccc1-c1c[nH]c(=O)c2cc(O[C@@H](C)C(=O)N[C@H](C)C(N)=O)ccc12 [Example 24, (S)-N-((R)-1-amino-1-oxopropan-2-yl)-2-((1-oxo-4-(o-tolyl)-1,2-dihydroisoquinolin-7-yl)oxy)propanamide]
5 | 62000 nM | COc1ccc2c(-c3ccccc3C(C)O)c[nH]c(=O)c2c1 (centres unmarked) [Example 11, 4-(2-(1-hydroxyethyl)phenyl)-7-methoxyisoquinolin-1(2H)-one]
6 | 100 nM | CC(=O)N[C@@H]1CCCN(C(=O)[C@@H](C)Oc2ccc3c(-c4ccccc4C)c[nH]c(=O)c3c2)C1 [Example 29, N-((R)-1-((R)-2-((1-oxo-4-(o-tolyl)-1,2-dihydroisoquinolin-7-yl)oxy)propanoyl)piperidin-3-yl)acetamide]
7 | 3000 nM | Cc1ccccc1-c1c[nH]c(=O)c2cc(O[C@H](C)C(=O)N3CCCCC(N(C)C)C3)ccc12 (single isomer, unassigned) [Example 75]
8 | 200 nM | Cc1ccccc1-c1c[nH]c(=O)c2cc(O[C@H](C)C(=O)N3CCC[C@H](N(C)C)C3)ccc12 [Example 32, 7-(((R)-1-((S)-3-(dimethylamino)piperidin-1-yl)-1-oxopropan-2-yl)oxy)-4-(o-tolyl)isoquinolin-1(2H)-one]
9 | 1000 nM | Cc1c(F)cccc1-c1c[nH]c(=O)c2cc(N(C)CC(=O)NCCO)ccc12 [Example 70, 2-((4-(3-fluoro-2-methylphenyl)-1-oxo-1,2-dihydroisoquinolin-7-yl)(methyl)amino)-N-(2-hydroxyethyl)acetamide]
10 | 300 nM | Cc1ccccc1-c1c[nH]c(=O)c2cc(O[C@H](C)C(=O)N3CCC[C@@H](N(C)C)C3)ccc12 [Example 33, 7-(((R)-1-((R)-3-(dimethylamino)piperidin-1-yl)-1-oxopropan-2-yl)oxy)-4-(o-tolyl)isoquinolin-1(2H)-one]
11 | 200 nM | CNC1CCN(C(=O)[C@@H](C)Oc2ccc3c(-c4ccccc4C)c[nH]c(=O)c3c2)CC1 [Example 68, (R)-7-((1-(4-(methylamino)piperidin-1-yl)-1-oxopropan-2-yl)oxy)-4-(o-tolyl)isoquinolin-1(2H)-one]
12 | 100 nM | Cc1ccccc1-c1c[nH]c(=O)c2cc(O[C@H](C)C(=O)NC3(C(N)=O)CC3)ccc12 [Example 62, (R)-1-(2-((1-oxo-4-(o-tolyl)-1,2-dihydroisoquinolin-7-yl)oxy)propanamido)cyclopropane-1-carboxamide]
13 | 100 nM | CCCC1(C(=O)O)CCCN(C(=O)[C@@H](C)Oc2ccc3c(-c4ccccc4C)c[nH]c(=O)c3c2)C1 (single isomer, unassigned) [Example 66]
14 | 60 nM | Cc1ccccc1-c1c[nH]c(=O)c2cc(O[C@H](C)C(=O)N3CCC(C)(C(=O)O)CC3)ccc12 [Example 15, (R)-4-methyl-1-(2-((1-oxo-4-(o-tolyl)-1,2-dihydroisoquinolin-7-yl)oxy)propanoyl)piperidine-4-carboxylic acid]
15 | 30 nM | Cc1ccccc1-c1c[nH]c(=O)c2cc(O[C@H](C)C(=O)N3CCCC(C(C)(C)C(N)=O)C3)ccc12 (single isomer, unassigned) [Example 45]
16 | 300 nM | C[C@@H](Oc1ccc2c(-c3ccc(F)cc3Cl)c[nH]c(=O)c2c1)C(=O)N1CCCC(C(C)(C)C(=O)O)C1 (single isomer, unassigned) [Example 51]

Row | Compound | IC50
17 | COCCN1C2CCC1CN(C(=O)[C@@H](C)Oc1ccc3c(-c4ccccc4C)c[nH]c(=O)c3c1)C2 [Example 27, 7-(((2R)-1-(8-(2-methoxyethyl)-3,8-diazabicyclo[3.2.1]octan-3-yl)-1-oxopropan-2-yl)oxy)-4-(o-tolyl)isoquinolin-1(2H)-one] | 100 nM
